Measured values as given in US20200039973A1, “NOVEL 5-SUBSTITUTED IMIDAZOLYLMETHYL DERIVATIVES” (BAYER CROPSCIENCE AKTIENGESELLSCHAFT, priority 2016, published 2020).

experiment: Measurement of LogP values by HPLC on reversed phase columns (EEC directive 79/831 Annex V.A8); assay type: physicochemical; conditions: Table 1; method [a]: LC-UV, acidic range, 0.1% formic acid in water and acetonitrile as eluent
Protocol: Measurement of LogP values was performed according to EEC directive 79/831 Annex V.A8 by HPLC (High Performance Liquid Chromatography) on reversed phase columns with the following methods: • ^[a] Log P value is determined by measurement of LC-UV, in an acidic range, with 0.1% formic acid in water and acetonitrile as eluent (linear gradient from 10% acetonitrile to 95% acetonitrile). • ^[b] Log P value is determined by measurement of LC-UV, in a neutral range, with 0.001 molar ammonium acetate solution in water and acetonitrile as eluent (linear gradient from 10% acetonitrile to 95% acetonitrile). • ^[c] Log P value is determined by measurement of LC-UV, in an acidic range, with 0.1% phosphoric acid and acetonitrile as eluent (linear gradient from 10% acetonitrile to 95% acetonitrile).
If more than one Log P value is available within the same method, all the values are given and separated by “+”.
Calibration was done with straight-chain alkan2-ones (with 3 to 16 carbon atoms) with known Log P values (measurement of Log P values using retention times with linear interpolation between successive alkanones). Lambda-max-values were determined using UV-spectra from 200 nm to 400 nm and the peak values of the chromatographic signals.

Row | LogP | SMILES | chromatographic logP
1 | 3.00^[a] | N#Cc1cncn1CC(O)(Cc1ccccc1Cl)c1ccc(F)cc1F (centres unmarked) [I-01] | –
2 | 2.82^[a] | N#Cc1cncn1CC(O)(Cc1ccc(F)cc1F)c1ccc(F)cc1F (centres unmarked) [I-02] | –
3 | 2.96^[a] | N#Cc1cncn1CC(O)(Cc1ccc(F)c(F)c1F)c1ccc(F)cc1F (centres unmarked) [I-03] | –
4 | 2.40^[a] | N#Cc1cncn1CC(O)(Cc1cccc(F)c1F)c1ccccc1 (centres unmarked) [I-04] | –
5 | 2.47^[a] | N#Cc1cncn1CC(O)(Cc1ccc(F)cc1)c1ccccc1 (centres unmarked) [I-05] | –
6 | 3.17^[a] | N#Cc1cncn1CC(O)(Cc1ccc(Cl)cc1F)c1ccc(F)cc1F (centres unmarked) [I-07] | –
7 | 2.51^[a] | N#Cc1cncn1CC(O)(Cc1ccccc1F)c1ccccc1 (centres unmarked) [I-08] | –
8 | 2.60^[a] | N#Cc1cncn1CC(O)(Cc1ccc(F)cc1F)c1ccccc1 (centres unmarked) [I-09] | –
9 | 2.90^[a] | N#Cc1cncn1CC(O)(Cc1ccc(F)cc1F)c1ccc(Cl)s1 (centres unmarked) [I-10] | –
10 | 2.98^[a] | Cc1cccc(CC(O)(Cn2cncc2C#N)c2ccc(F)cc2F)c1F (centres unmarked) [I-11] | –
11 | 2.75^[a] | N#Cc1cncn1CC(O)(Cc1cccc(F)c1F)c1ccc(F)cc1F (centres unmarked) [I-12] | –
12 | 3.18^[a] | N#Cc1cncn1CC(O)(Cc1ccccc1F)C1(c2ccccc2)CC1 (centres unmarked) [I-14] | –
13 | 3.44^[a] | N#Cc1cncn1CC(O)(Cc1ccccc1Cl)C1(c2ccccc2)CC1 (centres unmarked) [I-15] | –
14 | 2.70^[a] | N#Cc1cncn1CC(O)(Cc1ccccc1Cl)c1ccccc1 (centres unmarked) [I-17] | –
15 | 2.98^[a] | N#Cc1cncn1CC(O)(Cc1ccc(Cl)cc1F)c1ccccc1 (centres unmarked) [I-18] | –
16 | 2.78^[a] | N#Cc1cncn1CC(O)(Cc1ccccc1F)c1ccc(Cl)s1 (centres unmarked) [I-19] | –

Row | LogP | SMILES | chromatographic logP
17 | 2.68^[a] | N#Cc1cncn1CC(O)(Cc1ccccc1F)c1ccc(F)cc1F (centres unmarked) [I-20] | –
18 | 2.57^[a] | N#Cc1cncn1CC(O)(Cc1ccc(F)c(F)c1F)c1ccccc1 (centres unmarked) [I-21] | –
19 | 3.06^[a] | N#Cc1cncn1CC(O)(Cc1cccc(Cl)c1F)c1ccc(F)cc1F (centres unmarked) [I-22] | –
20 | 3.25^[a] | N#Cc1cncn1CC(O)(Cc1cccc(F)c1F)C1(c2ccccc2)CC1 (centres unmarked) [I-23] | –
21 | 2.73^[a] | N#Cc1cncn1CC(O)(Cc1ccc(F)cc1)c1ccc(F)cc1F (centres unmarked) [I-24] | –
22 | 2.63^[a] | N#Cc1cncn1CC(O)(Cc1ccccc1F)c1cc(F)ccc1F (centres unmarked) [I-25] | –
23 | 3.07^[a] | N#Cc1cncn1CC(O)(Cc1ccc(Cl)cc1F)c1cc(F)ccc1F (centres unmarked) [I-26] | –
24 | 2.77^[a] | N#Cc1cncn1CC(O)(Cc1ccc(F)cc1F)c1cc(F)ccc1F (centres unmarked) [I-27] | –
25 | 2.92^[a] | N#Cc1cncn1CC(O)(Cc1ccccc1Cl)c1cc(F)ccc1F (centres unmarked) [I-28] | –
26 | 2.73^[a] | N#Cc1cncn1CC(O)(Cc1cccc(F)c1F)c1cc(F)ccc1F (centres unmarked) [I-29] | –
27 | 2.15^[a] | N#Cc1cncn1CC(O)(Cc1ccccc1F)c1ccco1 (centres unmarked) [I-30] | –
28 | 2.25^[a] | N#Cc1cncn1CC(O)(Cc1cccc(F)c1F)c1ccco1 (centres unmarked) [I-31] | –
29 | 2.45^[a] | N#Cc1cncn1CC(O)(Cc1ccccc1Cl)c1ccco1 (centres unmarked) [I-32] | –
30 | 2.57^[a] | N#Cc1cncn1CC(O)(Cc1cccc(Cl)c1F)c1ccco1 (centres unmarked) [I-33] | –
31 | – | N#Cc1cncn1CC(O)(Cc1ccc(F)cc1F)c1ccco1 (centres unmarked) [I-34, 3-[3-(2,4-difluorophenyl)-2-(2-furyl)-2-hydroxy-propyl]imidazole-4-carbonitrile] | 2.32

same assay, conditions: Table 2 (formula XVIIa); method [a]: LC-UV, acidic range, 0.1% formic acid in water and acetonitrile as eluent

Row | LogP | SMILES
32 | 1.87^[a] | N#Cc1cncn1CC(=O)Cc1cccc(F)c1F [XVIIa-02]
33 | 1.75^[a] | N#Cc1cncn1CC(=O)Cc1ccccc1F [XVIIa-03]
34 | 1.65^[a] | N#Cc1cncn1CC(=O)Cc1ccccc1 [XVIIa-04]
35 | 1.82^[a] | N#Cc1cncn1CC(=O)Cc1ccccc1Cl [XVIIa-05]
36 | 2.02^[a] | N#Cc1cncn1CC(=O)Cc1ccccc1Br [XVIIa-06]
37 | 2.14^[a] | N#Cc1cncn1CC(=O)Cc1ccc(Cl)cc1 [XVIIa-07]

same assay, conditions: reversed-phase HPLC column; Table 1; method [a]: LC-UV, acidic range, 0.1% formic acid in water and acetonitrile as eluent

Row | chromatographic logP | SMILES
38 | 3.29 | N#Cc1cncn1CC(O)(Cc1ccc(F)cc1F)C1(c2ccccc2)CC1 (centres unmarked) [I-06, 3-[3-(2,4-difluorophenyl)-2-hydroxy-2-(1-phenylcyclopropyl)propyl]imidazole-4-carbonitrile]
39 | 2.68 | N#Cc1cncn1CC(O)(Cc1ccccc1)c1ccc(F)cc1F (centres unmarked) [I-13, 3-[2-(2,4-difluorophenyl)-2-hydroxy-3-phenyl-propyl]imidazole-4-carbonitrile]
40 | 2.86 | N#Cc1cncn1CC(O)(Cc1cccc(F)c1F)c1ccc(Cl)s1 (centres unmarked) [I-16, 3-[2-(5-chloro-2-thienyl)-3-(2,3-difluorophenyl)-2-hydroxy-propyl]imidazole-4-carbonitrile]

same assay, conditions: reversed-phase HPLC column; Table 2 (formula XVIIa); method [a]: LC-UV, acidic range, 0.1% formic acid in water and acetonitrile as eluent

Row | chromatographic logP | SMILES
41 | 2.17 | N#Cc1cncn1CC(=O)C1(c2ccccc2)CC1 [XVIIa-01, 3-[2-oxo-2-(1-phenylcyclopropyl)ethyl]imidazole-4-carbonitrile]
